Experimental findings from ChEMBL document CHEMBL5038574, “Selaginellin Derivatives from Selaginella tamariscina and Their Upregulating Effects on Low-Density Lipoprotein Receptor Expression” (J Nat Prod, 2021) are described below.

Holding throughout (assay type): functional, cell-based
For test [1], the system named is HepG2. Put plainly: Up regulation of APOC2 mRNA expression in human HepG2 cells at 50 uM for 24 hrs by qPCR analysis. In general terms: In qPCR the cycle at which signal appears reflects the starting amount.
The subject of test [2] is HepG2. Put plainly: Up regulation of SREBP mRNA expression in human HepG2 cells at 50 uM for 24 hrs by qPCR analysis.
Test [3] relates to HepG2. Put plainly: Up regulation of APOE mRNA expression in human HepG2 cells at 50 uM for 24 hrs by qPCR analysis.
The test system of test [4] is HepG2. The test can be described thus: Up regulation of protein expression in human HepG2 cells at 10 to 50 uM for 24 hrs by western blot analysis. Particulars: dose 10-50 µM. Background: A western blot detects proteins with antibodies after separation by electrophoresis.
Test [5] relates to HepG2. The test can be described thus: Up regulation of LDLR mRNA expression in human HepG2 cells at 50 uM for 24 hrs by qPCR analysis.

Each structure is given as a SMILES string. Activity calls are given as the source filed them. The calls are words filed in the database; no cut-off is given here.

Take `COCc1ccc2c(c1CC(=O)c1ccc(O)cc1)C(c1ccc(OC)cc1)(c1ccc(OC)cc1)c1cc(O)ccc1-2`: the outcome in test [1], in test [2], in test [3], in test [4] and in test [5] was Active.
On to `O=C1C=CC(=C(c2ccc(O)cc2)c2c(-c3ccc(O)cc3)ccc(CO)c2C#Cc2ccc(O)cc2)C=C1`, for which the result in test [5] was inactive.
Still for that read-out and setting: with `COc1ccc(C(=C2C=CC(=O)C=C2)c2c(-c3ccc(O)cc3)ccc(COc3ccc(C(=C4C=CC(=O)C=C4)c4c(-c5ccc(O)cc5)ccc(CO)c4C#Cc4ccc(O)cc4)cc3)c2C#Cc2ccc(O)cc2)cc1` the entry was “inactive”.
On the same count and under the same terms, to `O=C1C=CC(=C(c2ccc(O)cc2)c2c(-c3ccc(O)cc3)ccc(COc3ccc([C@@]4(c5ccc(O)cc5)c5cc(O)ccc5-c5ccc(CO)c(C#Cc6ccc(O)cc6)c54)cc3)c2C#Cc2ccc(O)cc2)C=C1` belongs “inactive”; to `O=C1C=CC(=C(c2ccc(O)cc2)c2c(-c3ccc(O)cc3)ccc(COCc3ccc(-c4ccc(O)cc4)c(C(=C4C=CC(=O)C=C4)c4ccc(O)cc4)c3C#Cc3ccc(O)cc3)c2C#Cc2ccc(O)cc2)C=C1`, “inactive”; to `O=C1C=CC(=C(c2ccc(OCc3ccc(-c4ccc(O)cc4)c(C(=C4C=CC(=O)C=C4)c4ccc(O)cc4)c3C#Cc3ccc(O)cc3)cc2)c2c(-c3ccc(O)cc3)ccc(CO)c2C#Cc2ccc(O)cc2)C=C1`, “inactive”.
